The values that follow come from article PMC6337588, “Multi-Target Cinnamic Acids for Oxidative Stress and Inflammation: Design, Synthesis, Biological Evaluation and Modeling Studies” (Molecules, 2018).

The nature of data set [1]: Experimental lipophilicity as RM values by reversed phase TLC (RPTLC). The class given is physicochemical. To be noted: methanol/water 77/23 with 0.1% acetic acid, 24 °C, average of at least 5 measurements. From the text: Lipophilicity is a physicochemical property correlated with the biological activity. Lipophilicity influences ligand-target binding interactions, solubility, absorption, distribution, bioavailability, metabolism and elimination (ADME) and toxicological outcomes. The lipophilicity of the novel cinnamic acids was experimentally measured as RM values using a reverse phase thin layer chromatography (RPTLC) method. This is acknowledged as a reliable, fast and convenient approach for expressing lipophilicity (Table 1). RM relates to the thermodynamic Rf value in a logarithmic form. Bate-Smith and Westall firstly determined lipophilicity as RM values in 1950 [31]. The Br-substituted derivatives 1i–7i are more lipophilic than the OH-substituted ones 1ii–7ii which can be easily explained by their structural characteristics.
Reversed phase TLC (RPTLC) was performed on silica gel plates impregnated with 55% (v/v) liquid paraffin in light petroleum ether. The mobile phase was a methanol/water mixture (77/23, v/v) containing 0.1% of acetic acid. The plates were developed in closed chromatography tanks saturated with the mobile phase at 24 °C. Spots were detected under UV light. RM values were determined from the corresponding Rf values (from five individual measurements) using the equation RM = log[(1/Rf) − 1] [17, 18, 28].

Another data set addresses T1, soybean lipoxygenase (Glycine max, UniProt P08170).
T1 construct: purchased Sigma Chemical, Co. (St. Louis)
T1 sequence (P08170 1-839): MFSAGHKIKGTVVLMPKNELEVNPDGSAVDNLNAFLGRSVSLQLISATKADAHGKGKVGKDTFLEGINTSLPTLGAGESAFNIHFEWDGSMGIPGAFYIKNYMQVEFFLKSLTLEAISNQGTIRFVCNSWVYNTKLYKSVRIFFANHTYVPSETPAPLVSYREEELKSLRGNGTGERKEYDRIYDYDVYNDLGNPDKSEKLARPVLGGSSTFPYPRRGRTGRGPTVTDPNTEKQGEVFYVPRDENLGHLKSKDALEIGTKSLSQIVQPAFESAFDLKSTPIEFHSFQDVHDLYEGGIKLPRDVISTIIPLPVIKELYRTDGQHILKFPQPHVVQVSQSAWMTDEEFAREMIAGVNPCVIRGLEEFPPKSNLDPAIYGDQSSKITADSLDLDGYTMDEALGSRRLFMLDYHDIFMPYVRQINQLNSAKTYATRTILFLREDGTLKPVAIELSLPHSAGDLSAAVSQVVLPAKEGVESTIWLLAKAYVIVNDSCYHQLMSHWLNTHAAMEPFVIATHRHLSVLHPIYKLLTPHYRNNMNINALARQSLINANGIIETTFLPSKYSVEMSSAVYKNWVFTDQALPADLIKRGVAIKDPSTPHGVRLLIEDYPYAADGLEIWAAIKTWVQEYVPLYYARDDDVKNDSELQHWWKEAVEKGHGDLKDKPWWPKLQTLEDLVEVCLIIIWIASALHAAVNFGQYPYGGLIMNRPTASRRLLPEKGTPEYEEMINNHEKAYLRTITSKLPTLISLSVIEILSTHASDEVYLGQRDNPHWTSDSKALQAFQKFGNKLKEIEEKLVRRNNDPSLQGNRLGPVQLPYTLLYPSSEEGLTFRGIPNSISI
As to the kind of experiment: Soybean lipoxygenase inhibition in vitro. The class given is biochemical. As to conditions: sodium linoleate 0.1 mM, 234 nm, read-out: LOX IC50. On the procedure: Many research groups have used readily obtainable soybean lipoxygenase, which is a homologue of mammalian lipoxygenase and well studied. Due to its availability and its well-characterised crystal structure, soybean LOX was selected to be used in this study.
In vitro study was evaluated as reported previously by our group. The tested compounds were incubated at room temperature with sodium linoleate (0.1 mM) and 0.2 mL of enzyme solution (1/9 × 104 w/v in saline). The method was based to the conversion of sodium linoleate to 13-hydroperoxylinoleic acid at 234 nm. […] In order to determine the IC50 values different concentrations were used.

The nature of data set [2]: Reducing activity of the stable radical DPPH. The class given is biochemical. On the procedure: The substituted acids were monitored for the antioxidant activity by the use of the stable 2,2-diphenyl-1-picrylhydrazyl radical (DPPH) at concentration 50 µM and 100 µM after 20 and 60 min (Table 1). In this assay the DPPH radical is reduced by single electron transfer from the antioxidant. Strong antioxidants are the phenoxide anions from phenolic compounds like catechol and derivatives, such as nordihydroguaretic acid (NDGA), the reference compound. The compounds presented medium reducing abilities from 29–61%, due to steric reasons; small differences were found among the compounds with time and concentration. 4-Br-substituted-3 phenyl acetic acid derivatives (Series I) are equipotent to 4-OH-substituted-3 phenyl acetic acid derivatives (Series II). No differences were observed between 4i and 5i and 4ii and 5ii.
To a solution of DPPH in absolute ethanol an equal volume of the compounds dissolved in DMSO was added. The final concentrations of the measured solutions of the novel acids were 50 and 100 µM starting from a stock solution (10 mM) in DMSO. The absorbance was recorded at 517 nm, after 20 and 60 min at room temperature (Table 1).
Background: DPPH is a stable violet radical that fades when it is reduced.

Data set [3] can be described thus: Competition with DMSO for hydroxyl radicals (Fe3+/ascorbic acid system). The class given is biochemical. To be noted: hydroxyl radical scavenging. On the procedure: Competition of the novel substituted acids with DMSO for hydroxyl radicals was measured. Hydroxyl radicals were generated using the Fe^3+/ascorbic acid system and expressed as a percentage inhibition of formaldehyde production in the presence of each compound at 100 μM (Table 2). All the synthesized derivatives strongly scavenge hydroxyl radicals at 100 μM in comparison to the reference compound Trolox.
The hydroxyl radicals generated by the Fe^3+/ascorbic acid system, were detected by the determination of formaldehyde produced from the oxidation of DMSO (Table 2). Trolox was used as reference compound [17, 18, 28].

Data set [4] can be described thus: ABTS+• decolorization assay. As to conditions: 1 min, 734 nm. The class given is biochemical. How it is done: No role for lipophilicity was found. Oxidation of ABTS with potassium persulfate generates directly the ABTS radical cation (ABTS^+•) with no involvement of an intermediary radical, which is then reduced upon adding electron-donating antioxidants.
In order to produce the ABTS radical cation (ABTS^+•), ABTS stock solution in water (7 mM) was mixed with potassium persulfate (2.45 mM) and left in the dark at room temperature for 12–16 h before use. Our published experimental technique was used (Table 2). The results are recorded after 1 min of the mixing solutions at 734 nm. The results were compared to the appropriate standard inhibitor Trolox.

Data set [5] is described as follows: Inhibition of linoleic acid peroxidation (AAPH). In kind it is biochemical. To be noted: anti-lipid peroxidation. The source says: We also used water-soluble 2,2′-[…](2-amidinopropane) hydrochloride (AAPH) for the generation of free radicals. AAPH has been extensively used as a clean and controllable source of thermally produced alkylperoxyl free radicals. The peroxyl radicals produced by the action of AAPH show total similarity to cellular activities such as lipid peroxidation. […] It seems that the presence of 3,5-di-tert-butyl-group greatly enhances protection against lipid peroxidation (6i/ii and 7i/ii followed by 3ii and 5ii). The lipid peroxidation inhibitory activity seems to be concentration dependent.
2,2’-Azobis(2-amidinopropane) dihydrochloride (AAPH) was used as a free radical initiator to start the oxidation reaction. The method was based on the production of conjugated diene hydroperoxide by oxidation of linoleic acid at 234 nm expressed as an increased absorption. Trolox was used as reference compound (93%) (Table 2).

Values joined by “and” are separate entries in the source; they are usually repeats but may differ in a detail not shown here. Equal values may be shown once.

Regarding `O=C(O)C(=Cc1ccc(OCc2ccc(Br)cc2)cc1)c1ccc(Br)cc1` [Compound 2i, 3-(4-((4-Bromobenzyl)oxy)phenyl)-2-(4-bromophenyl)acrylic acid], the “RM (±SD)” value in data set [1] is 0.605 (0.016). The IC50 (usually the concentration that gives 50% inhibition) on soybean lipoxygenase came to 76 µM. Also, in data set [2], the “RA% 50 µM 20 min” value is 35%, the “RA% 50 µM 60 min” value was determined as 34%, the “RA% 100 µM 20 min” value worked out at 37% and the “RA% 100 µM 60 min” value is listed as 40%. The “HO•% 100 µM” value in data set [3] is listed as 95%. In data set [4], the “ABTS+•% 100 µM” value stood at 32%. Further, in data set [5], the “AAPH% 50 µM” value turned out to be 48% and the “AAPH% 100 µM” value is reported as 96%.

Regarding `O=C(O)C(=Cc1ccc(OCc2ccc(Br)cc2)cc1)c1ccc(O)cc1` [Compound 2ii, 3-(4-((4-Bromobenzyl)oxy)phenyl)-2-(4-hydroxyphenyl)acrylic acid], the “RM (±SD)” value in data set [1] is 0.061 (0.007). Besides, the half-inhibitory concentration (IC50) on soybean lipoxygenase turned out to be 77 µM. In data set [2], the “RA% 50 µM 20 min” value was determined as 36%, the “RA% 50 µM 60 min” value was found to be 37%, the “RA% 100 µM 20 min” value is 43% and the “RA% 100 µM 60 min” value was found to be 56%. The “HO•% 100 µM” value in data set [3] was 99%. The “ABTS+•% 100 µM” value in data set [4] is given as 47%. Also, in data set [5], the “AAPH% 50 µM” value stood at 49% and the “AAPH% 100 µM” value was 87%.

As for `CN(C)c1ccc(C=CC=C(C(=O)O)c2ccc(Br)cc2)cc1` [Compound 3i, 2-(4-Bromophenyl)-5-(4-(dimethylamino)phenyl)penta-2,4-dienoic acid], the melting point (usually the temperature of the solid-liquid transition) was in the range of 120 to 121 °C. Also, the “RM (±SD)” value in data set [1] is 0.582 (0.037). Besides, at soybean lipoxygenase, the half-maximal inhibitory concentration (IC50) is 7.4 µM. In data set [2], the “RA% 50 µM 20 min” value is 34%, the “RA% 50 µM 60 min” value is 37%, the “RA% 100 µM 20 min” value was 48% and the “RA% 100 µM 60 min” value was determined as 51%. In data set [3], the “HO•% 100 µM” value is 100%. In data set [4], the “ABTS+•% 100 µM” value is 83.4% and 83%. In data set [5], the “AAPH% 50 µM” value worked out at 43% and the “AAPH% 100 µM” value was determined as 88%.

`CC(=Cc1ccccc1)C=C(C(=O)O)c1ccc(Br)cc1` [Compound 5i, 2-(4-Bromophenyl)-4-methyl-5-phenylpenta-2,4-dienoic acid]: the melting point was 128 to 129 °C. Moreover, the “RM (±SD)” value in data set [1] is 0.683 (0.015). For the same compound, the IC50 at soybean lipoxygenase worked out at 77.5 µM. In data set [2], the “RA% 50 µM 20 min” value is recorded as 33%, the “RA% 50 µM 60 min” value is on record as 33%, the “RA% 100 µM 20 min” value stood at 36% and the “RA% 100 µM 60 min” value is on record as 38%. Besides, the “HO•% 100 µM” value in data set [3] came out at 82%. Moreover, in data set [4], the “ABTS+•% 100 µM” value was determined as 30%. For the same compound, in data set [5], the “AAPH% 50 µM” value is given as 10% and the “AAPH% 100 µM” value stood at 98%. Also, the “AAPH lipid peroxidation inhibition at 10 μΜ” value in data set [5] (10 μΜ) is recorded as 9.6%.

Turning to `CC(C)(C)c1cc(C=C(C(=O)O)c2ccc(Br)cc2)c(O)c(C(C)(C)C)c1` [Compound 6i, 2-(4-Bromophenyl)-3-(3,5-di-tert-butyl-2-hydroxyphenyl)acrylic acid], the melting point was 168 to 170 °C. For the same compound, the “RM (±SD)” value in data set [1] is given as 0.480 (0.035). Also, the IC50 at soybean lipoxygenase is 60 µM. For the same compound, in data set [2], the “RA% 50 µM 20 min” value is recorded as 38%, the “RA% 50 µM 60 min” value turned out to be 36%, the “RA% 100 µM 20 min” value came out at 44% and the “RA% 100 µM 60 min” value is 39%. The “HO•% 100 µM” value in data set [3] was determined as 100%. In addition, in data set [4], the “ABTS+•% 100 µM” value was 53%. Moreover, in data set [5], the “AAPH% 50 µM” value came out at 56% and the “AAPH% 100 µM” value turned out to be 100%.

In the case of `CC(C)(C)c1cc(C=C(C(=O)O)c2ccc(O)cc2)c(O)c(C(C)(C)C)c1` [Compound 6ii, 3-(3,5-di-tert-Butyl-2-hydroxyphenyl)-2-(4-hydroxyphenyl)acrylic acid], the melting point fell in the range of 134 to 136 °C. The “RM (±SD)” value in data set [1] is reported as 0.622 (0.025). In addition, the IC50 at soybean lipoxygenase stood at 74 µM. For the same compound, in data set [2], the “RA% 50 µM 20 min” value was 43%, the “RA% 50 µM 60 min” value amounted to 36%, the “RA% 100 µM 20 min” value turned out to be 31% and the “RA% 100 µM 60 min” value turned out to be 36%. In data set [3], the “HO•% 100 µM” value stood at 100%. Moreover, in data set [4], the “ABTS+•% 100 µM” value is given as 38%. Besides, in data set [5], the “AAPH% 50 µM” value is reported as 64% and the “AAPH% 100 µM” value amounted to 96%.

Consider `CC(Cc1ccc(O)c(O)c1)C(C)Cc1ccc(O)c(O)c1` (stereo not drawn) [NDGA, nordihydroguaretic acid, reference compound], for which, in data set [2], the “RA% 50 µM 20 min” value is reported as 81%, the “RA% 50 µM 60 min” value was 83%, the “RA% 100 µM 20 min” value stood at 87% and the “RA% 100 µM 60 min” value came to 93%.

Turning to `Cc1c(C)c2c(c(C)c1O)CCC(C)(C(=O)O)O2` (stereo not drawn) [Trolox, reference compound], the “HO•% 100 µM” value in data set [3] stood at 73%. Moreover, in data set [4], the “ABTS+•% 100 µM” value is recorded as 88%. The “AAPH% 100 µM” value in data set [5] stood at 93%.
